The record followed here is patent US3987052A, “6-Phenyl-4H-s-triazolo[4,3-a][1,4]benzodiazepines” (priority 1969, dated 1976).

Common to all, as to type: in vivo
Experiment [1] relates to mice. Nature of the experiment: Pedestal test: mice staying on the pedestal for more than 1 minute. To be noted: Mus musculus. The protocol:
(§1) Sedative effects of 8-chloro-1-methyl-6-phenyl-4H-s-triazolo-[4,3-a][1,4]benzodiazepine are shown by the following tests in mice:
Pedestal test: The untreated mouse leaves the pedestal in less than a minute to climb back to the floor of the standard mouse box. Tranquilized mice will stay on the pedestal for more than 1 minute. The ED50 (intraperitoneal administration) is 0.20 mg./kg.; the ED50 (oral administration) is 0.9 mg.kg.

Experiment [2] deals with mice. The experiment in a line: Nicotine antagonism test (nicotine salicylate 2 mg./kg.). To be noted: Mus musculus. Here is the method:
Nicotine antagonism test: Mice in a group of 6 are injected with the test compound (8-chloro-1-methyl-6-phenyl-4H-s-triazolo[4,3-a][1,4]benzodiazepine). Thirty minutes later the mice including control (untreated) mice are injected with nicotine salicylate (2 mg./kg.). The control mice show overstimulation, i.e., (1) running convulsions followed by (2) tonic extensor fits; followed by (3) death.
Ni =]nicotine antagonism (3) test

Experiment [3] relates to mice. Nature of the experiment: Dish test: mice remaining in Petri dish for more than 3 minutes. The following applies: Mus musculus. The protocol:
as §1
Dish test: Mice in Petri dishes (10 cm. diameter, 5 cm. high, partially embedded in wood shavings), climb out in a very short time, when not treated. Mice remaining in the dish for more than 3 minutes indicates tranquilization. ED50 equals the dose of test compound at which 50% of the mice remain in the dish.

Experiment [4] concerns mice. Nature of the experiment: Chimney test: ability of mice to back up and out of a vertical glass cylinder within 30 seconds. To be noted: Mus musculus, ip. The protocol: as §1
Chimney test: [Med. Exp. 4, 145 (1961)]: The effective intraperitoneal dosage for 50% of mice (ED50) is 0.09 mg./kg. The test determines the ability of mice to back up and out of a vertical glass cylinder within 30 seconds. At the effective dosage, 50% of the mice failed doing it.

Experiment [5] has as its system mice. Nature of the experiment: Antagonism to strychnine (as sulfate), 3 mg./kg. intraperitoneally. The following applies: Mus musculus, po, 4 h, read-out: effective dosage ED50, antagonism to strychnine. The protocol:
Antagonism to strychnine (as sulfate): The effective dosage ED50 of 8-chloro-1-methyl-6-phenyl-4H-s-triazolo[4,3-a][1,4]benzodiazepine is 1 mg./kg. orally in mice. The test consists in orally administering into groups of 6 mice the test compound, 8-chloro-1-methyl-6-phenyl-4H-s-triazolo[4,3-a][1,4]benzodiazepine, and 30 minutes later 3 mg./kg. strychnine sulfate intraperitoneally. The survivors after 4 hours reflect the activity of the compound as a muscle relaxant and antispasmodic. A dosage of 3 mg./kg. of strychnine sulfate is routinely fatal to all the control mice.

The mark [6] stands for this setting: ip, intraperitoneal injection, table 1, read-out: ED50 P (pedestal test).
[7] abbreviates: ip, intraperitoneal injection, table 1, read-out: ED50 Ni (nicotine antagonism (3) test).
[8] abbreviates: ip, intraperitoneal injection, table 1, read-out: ED50 D (dish test).
The mark [9] stands for this setting: intraperitoneal injection, table 1, read-out: ED50 Ch (chimney test).

SMILES strings stand for the structures.

One may read the ED50 as the midpoint of the dose-response relation. Consider `Cc1nnc2n1-c1ccc(C(F)(F)F)cc1C(c1ccccc1)=NC2` [1-methyl-6-phenyl-8-(trifluoromethyl)-4H-s-triazolo[4,3-a][1,4]benzodiazepine], for which the ED50 in the experiment on mice [1] (setting [6]) was found to be 0.22 mg/kg; in the experiment with mice [2] (setting [7]), 0.08 mg/kg; in the experiment with mice [3] (setting [8]), 0.16 mg/kg; in the experiment on mice [4] (setting [9]), 0.16 mg/kg.
For the molecule `CCc1nnc2n1-c1ccc(Cl)cc1C(c1ccccc1)=NC2` [8-Chloro-1-ethyl-6-phenyl-4H-s-triazolo[4,3-a]-[1,4]benzodiazepine], the ED50 in the experiment on mice [1] (setting [6]) amounted to 0.9 mg/kg; with mice [2] (setting [7]), 0.2 mg/kg; with mice [3] (setting [8]) it was 0.9 mg/kg; in the experiment with mice [4] (setting [9]), 0.8 mg/kg.
As to `Cc1nnc2n1-c1ccc(Cl)cc1C(c1ccccc1Cl)=NC2` [8-Chloro-1-methyl-6-(o-chlorophenyl)-4H-s-triazolo[4,3-a][1,4]benzodiazepin], the ED50 in the experiment on mice [1] (setting [6]) was 0.045 mg/kg; with mice [2] (setting [7]) it was 0.008 mg/kg; in the experiment on mice [3] (setting [8]) it was 0.028 mg/kg; with mice [4] (setting [9]), 0.05 mg/kg.
The matching figures for `Cc1nnc2n1-c1ccc(Cl)cc1C(c1c(F)cccc1F)=NC2` [8-chloro-1-methyl-6-(2,6-difluorophenyl)-4H-s-triazolo[4,3-a][1,4]benzodiazepine]: 0.02 mg/kg, 0.018 mg/kg, 0.016 mg/kg and 0.009 mg/kg.
For `Cc1nnc2n1-c1ccc(Cl)cc1C(c1ccccc1F)=NC2` [8-chloro-1-methyl-6-(o-fluorophenyl)-4H-s-triazolo[4,3-a][1,4]benzodiazepine] the same measures were 0.028 mg/kg, 0.009 mg/kg, 0.016 mg/kg and 0.056 mg/kg.
Turning to `Cc1nnc2n1-c1ccc(Cl)cc1C(c1ccccc1)=NC2` [8-chloro-1-methyl-6-phenyl-4H-s-triazolo[4,3-a][1,4]benzodiazepine], the ED50 amounted to 0.2 mg/kg in the experiment with mice [1] (ip, intraperitoneal administration, mice, read-out: ED50, pedestal test); 0.9 mg/kg with mice [1] (oral administration, mice, read-out: ED50, pedestal test); 0.1 mg/kg with mice [2] (ip, intraperitoneal, 30 minutes before nicotine salicylate 2 mg./kg., mice, read-out: intraperitoneal dosage that protected 50% of the mice against (2) tonic extensor fits and (3) death (ED50)); 0.04 mg/kg in the experiment on mice [2] (oral, before nicotine salicylate 2 mg./kg., mice, read-out: oral ED50, nicotine antagonism); 0.15 mg/kg with mice [3] (ip, intraperitoneal administration, mice, read-out: ED50, dish test); 0.045 mg/kg in the experiment with mice [3] (oral, mice, read-out: oral ED50, dish test). Also, the ED50 is 0.09 mg/kg in the experiment with mice [4] (intraperitoneal, mice, read-out: effective intraperitoneal dosage for 50% of mice (ED50), chimney test) and 1 mg/kg in the experiment on mice [5].
Consider `Clc1ccc2c(c1)C(c1ccccc1)=NCc1nncn1-2` [8-chloro-6-phenyl-4H-s-triazolo[4,3-a][1,4]benzodiazepine], for which the ED50 in the experiment with mice [1] (setting [6]) was 0.7 mg/kg; in the experiment on mice [2] (setting [7]), 0.08 mg/kg; in the experiment on mice [3] (setting [8]) it was 0.4 mg/kg; with mice [4] (setting [9]), 0.25 mg/kg.
